Source: paper PMC7203245, “Lacosamide intake during pregnancy increases the incidence of foetal malformations and symptoms associated with schizophrenia in the offspring of mice” (Scientific Reports, 2020)

Tests used:
pups = assay: Litter loss, neonatal lethality and body weight of pups born to dams given LCM during gestation; type: in vivo, mice; conditions: for weight gain from P2 to P13: higher dose
Description: Thus, we used 10, 40, 80 and 120 mg/kg in mice, which corresponded to 56.7, 227, 454 and 681 mg/day in humans, considering an average weight of human to be 70 kg and that of mice to be 30 gr[52],[55]. Controls were administered the vehicle alone: saline solution 0.9% w/v. […] A total of 32 dams were initially treated daily, two days before mating and until the 14th day post-coitus. […] In the breastfeeding period, females were not under treatment given that a person will bottle feed the baby if they were on medication.
In this part of the study, dams were treated until the day of delivery. After analysing the embryo toxicity data, the treatments were categorized as controls (saline vehicle solution alone), low dose (40 mg/kg) and high dose (120 mg/kg). […] The day of birth was designated as postnatal day (P) P0 and the litter size delivered by each dam was recorded, checking each pup for gross abnormalities. Pups were nursed by their natural dams until weaning and from PD 2, the pups were weighed and neonatal behavioural tests were carried out on 12 control mice, 12 low dose and 10 high dose mice from 7 litters. During testing whole litters were separated from the dams and maintained for 30 min in a warm environment. At this stage, males and females were pooled for neurodevelopmental screening. All testing was performed between 07:30 a.m. and 12:00 a.m., and the mice were weighed before performing the tests.

adult male mice [1] = assay: Startle response/prepulse inhibition (PPI) test; type: in vivo
Description: (§1) All trials were performed by an experimenter blind to the drug treatment.
Startle response/prepulse inhibition (PPI) test. Animals were placed individually inside a startle chamber (Cibertec S.A., Madrid, Spain) and the startle response was measured using a piezoelectric accelerometer controlled by a computer. The digitized signal was averaged from 25–30 recordings. For training, the mouse was placed in the startle chamber for an acclimation period of 3 min. Baseline responses were averaged after the presentation of 20 sounds (125 dB, 100 ms long) and from this phase, the average response and peak latencies, and the peak response were determined. During PPI trials, the same 125-dB 100-ms burst was preceded (250 ms) by a prepulse stimulus of 85 dB, lasting for 50 ms. Trials including prepulse stimuli were randomly presented with normal startle stimuli, the final total being 25 of each, and the proportion of PPI was determined as [(1-prepulse/startle)*100]. The ambient background noise was 70 dB.

adult male mice [2] = assay: Y maze working memory test; type: in vivo; conditions: mice from dams exposed to LCM vs control
Description: as §1
Y maze. The Y maze used had three equal sized arms (8 x 40 x 20 cm), with white opaque walls at a 120° angle from each other. After introduction to the centre of the maze, the mice was allowed to freely explore the three arms during 5 minutes, recording the number of arm entries and the number of triads in order to calculate the alternation. An entry was considered to occur when all four limbs are within the arm. The success of the triplet was taken into account when mice visited the three arms in three consecutive arm entries showing normal novelty preference and working memory.

[3] = LCM and related compounds (RC) in embryos and mothers' serum by high-resolution MS/MSe; type: in vivo, mice; conditions: Maternal Dose 10 mg/kg
Description: Samples were extracted as described previously[25] with slight modifications. Briefly, embryos were rinsed with cold saline and ultrapure water, and their wet-weight was determined. […] The mixture was vortexed vigorously for 3 min and centrifuged at 13,000 g for 5 min. The supernatant was transferred to a new Eppendorf tube and evaporated to dryness in a stream of nitrogen gas. The residue was reconstituted with 50 µL of LC-MS Ultrapure water, vortexed for 20 s and centrifuged at 13,000 g for 5 min. The supernatant was transferred to a conic micro insert to be injected onto the UHPLC system.
MS spectra data were collected between m/z 50 and 1000, and MS/MS spectra were registered between 50-300 Da. […] The MS^e procedure was used to identify metabolites in positive ionization mode. UPLC–QTOF-MS^e detection collects data using two scan functions, providing fragment ion information without precursor ion selection. A characteristic m/z in the low energy function allows identification through the fragment ions obtained with the high collision energy function. Two functions were acquired at different collision energies: a low energy function obtained at 2 eV; and a high-energy function obtained using a collision energy ramp ranging from 15 to 30 eV and spectra data collected between m/z 50 and 800. The data station operating the software was a MassLynx version 4.1, while metabolites were identified by means of Metabolynx XS (Waters, Micromass, Manchester, UK).
In this work the following routes were selected for these searches: phase I metabolites Reduction (+H2), Hydroxylation (O), Hydration (+H2O), 2xHydroxylation (+O2), Deacetylation (-C2H2O) and Demethylation (-CH2); and phase II metabolites Acetylation (+C2H2O) and Glucuronide (+C6H8O6).

[4] = higher dose (120 mg/kg) to dams during gestation
[5] = lower dose (40 mg/kg) to dams during gestation

COC[C@@H](NC(C)=O)C(=O)NCc1ccccc1 [LCM, R-2-acetamido-N-benzyl-3-methoxypropionamide]
dams that never gained weight, suggesting that they lost their litters (pups; 40 mg/kg LCM daily from second day of gestation to birth): 1/5
dams that never gained weight, suggesting that they lost their litters (pups; 120 mg/kg LCM daily from second day of gestation to birth): 2/8
body weight differences in adults (pups; both LCM doses (40 and 120 mg/kg in utero), adult mice): disappeared
neonatal lethality (%) (pups; [4]): 15.38%
neonatal lethality (pups) (pups; [4]): 10/65
weight gain from P2 to P13 (pups; litter that died in the perinatal nursing period): 2 g
weight gain from P2 to P13 (pups; other pups under the same condition): 6.1 g
neonatal lethality (%) (pups; [5]): 9%
neonatal lethality (pups) (pups; [5]): 3/33
pups of an entire litter that died in the perinatal nursing period (P15-16) (pups; one dam exposed to higher dose): 11 pups
PPI of the acoustic startle response (adult male mice [1]; 40 mg/kg in utero): 54.85 ± 4.27%
PPI of the acoustic startle response (adult male mice [1]; 120 mg/kg in utero): 23.19 ± 7.9%
acoustic startle reflex parameters (peak latencies, maximum peak response) (adult male mice [1]; LCM administration during gestation): did not modify any parameters
arm alternation in Y-maze (adult male mice [2]; p = 0.04): decrease in alternation
locomotion in Y-maze (adult male mice [2]; p = 0.087): mild increase in locomotion
Embryos in which the LCM compound is present [3]: Embryo1 and 2
